Paper PMC7577319 (Bioorganic & medicinal chemistry, 2020)

System: HeLa cells
Experiment: Cytosolic entry of NF-labelled peptides by flow cytometry
Format: cell-based
Settings: 5 μM, 2 h, inversion of configuration of Arg-9 or Nal-4 of peptide 4

| Substance | fold higher cytosolic entry activity relative to peptide 4 [fold] |
| --- | --- |
| cyclo(AAFΦRpPRrFAAAQ)-miniPEG-K(NF) [compound 7] | 1.7 |
| cyclo(AAFϕRpPRRFAAAQ)-miniPEG-K(NF) [compound 8] | 2.3 |
